From patent publication US9896470B2, “Enhancing the stability and purity and increasing the bioavailability of human milk oligosaccharides or precursors or blends thereof” (Glycom A/S, priority 2012, dated 2018)

Columns and labels:
Assay type in all cases: physicochemical
[1] = Calorimetric (DSC) determination of glass transition temperature of the amorphous samples; conditions: for Tg (glass transition temperature): Perkin Elmer DSC-7, heating rate 10° C./min, spray-dried amorphous sample; for storage temperature limit suggested by Tg: spray-dried amorphous material
Procedure: The calorimetric experiments to determine the glass transition temperature of the amorphous samples were carried out using Perkin Elmer DSC-7 at a heating rate of 10° C./min; the samples (5-7 mg) were placed in open aluminium crucibles.

[2] = Stability test after two months (40° C., rel. humidity 75%)
Procedure: 75% of the methanol present in the feed solution was removed. […] Tg: 83.9° C.

[3] = Shelf life of spray-dried material on storage; conditions: below 40° C. storage temperature

Tg (glass transition temperature) [1] | storage temperature limit suggested by Tg [1] | shelf life [3] | Compound | stability test: changes in analytical data and powder X-ray diagram [2]
81.6 °C | around 60 °C | excellent shelf life | CC(=O)N[C@H]1[C@H](O[C@H]2[C@@H](O)[C@@H](CO)O[C@@H](O[C@H]3[C@H](O)[C@@H](O)C(O)O[C@@H]3CO)[C@@H]2O)O[C@H](CO)[C@@H](O[C@@H]2O[C@H](CO)[C@H](O)[C@H](O)[C@H]2O)[C@@H]1O (mixture of isomers) [spray-dried LNnT, Lacto-N-neotetraose] | no changes in the analytical data and powder X-ray diagram
83.9 °C | around 60 °C | excellent shelf life | C[C@@H]1OC(O[C@H]2[C@H](O[C@H]3[C@H](O)[C@@H](O)C(O)O[C@@H]3CO)O[C@H](CO)[C@H](O)[C@@H]2O)[C@@H](O)[C@H](O)[C@@H]1O (some centres unmarked) [spray-dried 2′-FL, 2′-O-fucosyllactose] | no changes in the analytical data and powder X-ray diagram
84.0 °C | around 60 °C | excellent shelf life | CC(=O)N[C@H]1[C@H]([C@H](O)[C@H](O)CO)O[C@@](OC[C@H]2O[C@@H](O[C@H]3[C@H](O)[C@@H](O)[C@H](O)O[C@@H]3CO)[C@H](O)[C@@H](O)[C@H]2O)(C(=O)O)C[C@@H]1O [spray-dried 6′-SL, 6′-O-sialyllactose] | 
